Values joined by “and” are separate entries in the source; they are usually repeats but may differ in a detail not shown here. Equal values may be shown once.
Legend:
Format in all cases: in vivo, human
breast cancer patients = test: Phase IIb trial safety / tolerability; conditions: patients treated with either GLSI-100 or GM-CSF alone
Method: (§1) Methods: Consented patients were randomized and scheduled to receive GLSI-100 (500 microgram (mcg) GP2: 125 mcg GM-CSF) or control (GM-CSF only) via 6 intradermal injections every 3-4 weeks as part of the Primary Immunization Series (PIS) for the first 6 months and 4 booster intradermal injections every 6 months thereafter. […] DTH skin tests were assessed at baseline and after the 6th dose with the orthogonal mean of each skin reaction measured 48-72 hours after injection using the sensitive ballpoint-pen method.
Results: The study enrolled 180 patients across 16 clinical sites with both HER2 3+ positive and low HER2 expressors (1-2+). […] Injection site reactions were common, occurring in almost 100% of patients treated with either GLSI-100 or GM-CSF alone. Previous publications have reported the increase in DTH response reported among patients after treatment with GLSI-100.

[1] = test system: breast cancer patients (injection site); test: Injection site reaction (ISR) measurement, orthogonal mean
[2] = test system: breast cancer patients (DTH immune response to GP2); test: Delayed type hypersensitivity (DTH) skin test to GP2
Method: as §1
(§2) A DTH reaction was used to assess in vivo immune responses in patients (n=150) prior to exposure to study medication and after 6 months of the first dose. The DTH orthogonal mean was measured 48-72 hours after injection using the sensitive ballpoint-pen method. DTH reactions after the PIS were greater compared to baseline DTH reactions.
as §2, with “method. GP2” for “method.”, “response increases in patients” for “reactions”, “treatment with GLSI-100.” for “the PIS were greater compared to baseline DTH reactions.”
Injection site reactions (ISR) were measured 48-72 hours after injection. Delayed-type hypersensitivity (DTH) to GP2 was performed at baseline and after 6 months of treatment. For the DTH test, 0.5 mL consisting of 100 mcg of GP2 reconstituted in bacteriostatic saline for injection was placed intradermally. The DTH reaction was measured 48-72 hours after injection.
The orthogonal mean of the largest diameter of the injection site was measured 48-72 hours after injection. A DTH reaction was used to assess in vivo immune responses in patients prior to exposure to study medication and after 6 months of the first dose. The DTH orthogonal mean was measured 48-72 hours after DTH placement using the sensitive ballpoint-pen method. DTH reactions increase after the PIS compared to baseline DTH reactions.
GP2 DTH skin tests were placed at baseline and after the 6th dose. After 48-72 hours, the largest perpendicular diameters of induration were measured and the orthogonal mean was calculated. Induration of over 5 mm was considered a positive response. The relationship between prognostic factors such as demographic and disease characteristics and the baseline DTH response were investigated by logistic regression.

[3] = test system: node-positive and high-risk node-negative breast cancer patients with tumors expressing any degree of HER2; test: Phase IIb trial (NCT00524277): disease-free survival / breast cancer recurrence
Method: Background for Examples 1-5: Delayed type hypersensitivity (DTH) skin tests in the randomized, active-controlled, single-blinded, multicenter Phase IIb trial investigating GLSI-100 (GP2+GM-CSF) administered in the adjuvant setting to node-positive and high-risk node-negative breast cancer patients with tumors expressing any degree of HER2 (immuno-histochemistry [IHC] 1-3+) (NCT00524277) were analyzed. The trial enrolled HLA-A*02 patients randomized to receive GLSI-100 versus GM-CSF alone. The trial's primary objective was to determine if treatment with GLSI-100, a HER2-derived peptide, reduces recurrence rates.
as §1
Results: The study enrolled 180 patients across 16 clinical sites with both HER2 3+ positive and low HER2 expressors (1-2+). […] Injection site reactions were common, occurring in almost 100% of patients treated with either GLSI-100 or GM-CSF alone. […]

Row | Substance | patients with injection site reactions (breast cancer patients) | median orthogonal mean induration of injection site reaction ([1]; after a single dose, p=0.0036) | average difference in injection site reaction, HER2 3+ vs HER2 1-2+ control patients ([1]; over all 10 doses, HER2 3+ smaller) | DTH reaction after the Primary Immunization Series (orthogonal mean) ([2]; after 6 months, measured 48-72 hours after injection, p=0.009) | Kaplan-Meier estimated 5-year disease-free survival (DFS) rate ([3]; HER2 3+ patients followed 6 months or more and disease-free over first 6 months, 5 years follow-up, p=0.0338) | patients reacting to GP2 at baseline (positive DTH, induration of 5 mm or greater) ([2]; baseline, prior to any GP2 treatment, all patients (33/145)) | patients with positive baseline DTH response to GP2 in subgroup with later breast cancer recurrence ([2]; baseline, recurrence subgroup (8/22)) | 6 Month DTH (mm) ([2]; individual recurring patients, after 6 months of treatment) | Baseline DTH (mm) ([2]; individual recurring patients, prior to exposure to study medication) | Time to Recurrence ([3]; individual patients who experienced breast cancer recurrence)
1 | granulocyte-macrophage colony-stimulating factor [GM-CSF] | ~100% | 7.8 mm | 43.1 mm | 0.0 mm | 89.4% | – | – | – | – | –
2 | Ile Ile Ser Ala Val Val Gly Ile Leu (IISAVVGIL) [GP2] | – | – | – | – | – | 22.8% | 36.4% | 24 mm and 20 mm and 16 mm and 15 mm and 3 mm and 0 mm and 25 mm | 9 mm and 8 mm and 7 mm and 0 mm (8×) and 43 mm and 13 mm | 28 days and 99 days and 66 days and 820 days and 265 days and 498 days and 507 days and 366 days and 590 days and 141 days and 79 days and 76 days and 1295 days
